Assay results reported in patent US10106577B2, “Agonists of neurotrophin receptors and their use as medicaments” (BIONURE FARMA, S.L., priority 2010, dated 2018).

How the values were obtained:
[1] = PAMPA model of passive BBB permeability; type: in vitro ADME; settings: PAMPA; passive transport; pH 7.4; 18 hrs; read-out: Effective permeability (pe), PAMPA
Protocol: PAMPA is used as an in vitro model of passive BBB permeability. An artificial membrane immobilized on a filter is placed between a donor and acceptor compartment. At the start of the test, a drug is introduced in the donor compartment. Following the permeation period, the concentration of the drug in the donor and acceptor compartments are measured using UV spectroscopy. Therefore the permeability of any compound with a UV chromophore can be determined by this method.
The tested compound stock solutions were diluted 200-fold in universal buffer at pH 7.4 and added to the donor wells. The filter membrane was coated with PBL in dodecane and the acceptor well was filled with pH 7.4 buffer. The acceptor filter plate was carefully put on the donor plate to form a ‘sandwich’ (consisting of the aqueous donor with test the compound on the bottom, an artificial lipid membrane in the middle, and an aqueous acceptor on the top). The test compound diffused from the donor well through the lipid membrane and into the acceptor well. The ‘sandwich’ was left undisturbed for 18 hrs while the permeation occurred. The concentration of the test compound in the acceptor, the donor, and the reference wells was determined using the UV plate reader. Effective permeability (Pe) of each compound was calculated by using the pION PSR4p software. Samples were analyzed in triplicate and the average of the three runs was reported. Quality control standards were run with each sample set to monitor the consistency of the analysis set.

[2] = tested on: retinal ganglion cells (RGC); experiment: Glaucoma model, count of retinal ganglion cells; type: in vivo, Sprague Dawley rats; settings: first experiment; eye drops, NGF 200, G79 200 and 400 μg/ml
Protocol: 12 Sprague Dawley rats (4 months of age) were anesthetized with […] and subjected to hypertonic saline solution injection into the episcleral vein of the right eye. Intraocular pressure (IOP) was measured before the operation and was monitored one time a week using a TonoLab for 7 weeks. Treatment with G79 was begun one week after glaucoma induction by topical application at the conjunctive. Two different experiments were performed.
In the first experiment, G79 was dissolved into physiological solution and was used at two different concentration (200 μg/ml and 400 μg/ml). NGF was used as positive control (200 μg/ml) and the physiological solution, used to dissolve all the molecules, was subministered as placebo. The animals were divided into 4 groups (3 animals in each group): glaucoma-G79 200 μg/ml; glaucoma-G79 […]; glaucoma-NGF; glaucoma-placebo. The left eye was used as the control without glaucoma. In both experiments, seven weeks after glaucoma induction, animals were sacrificed by overdose of anaesthetic and their eyes were taken and fixed in 4% of PFA. The eyes were included in paraffin and cut into 20 μm sections to be used for histological studies (hematoxilin-eosin staining). The cell count of the number of retinal ganglion cells (RGC) was performed randomly in ten different fields for each eye.
Rats were injected with a hypertonic solution in the eye that induced high intraocular pressure for five weeks. Animals were treated with eye drops of NGF ([…]), G79 ([…]) or placebo every day for five weeks. Animals with glaucoma and treated with placebo (saline) have a significant decrease in the number of retinal ganglion cells compared with control.
In the second experiment, G79 at the concentration of 200 μg/ml was used. The objective of this second experiment was to compare the efficacy of G79 to Timolol, the most common therapy for glaucoma that works by decreasing the intraocular pressure. Also in this experiment, a combination treatment with G79 and Timolol was performed. […]

PC12 cells [3] = experiment: Dose response differentiation assay in PC12 cell line; type: cell-based; settings: 100 ng/ml; after 3 days of treatment
Protocol: Stock of PC12 cultures were maintained in Ham's F12 medium supplemented with 2.5% fetal bovine serum (FBS), 15% of horse serum (HS) and 1% penicillin/streptomycin. The cell culture was maintained in 5% CO2 at 37° C.
PC12 cell differentiation was assessed by treating the cells with all the test compounds (G79, G80, and G81) at different testing concentration (2-20-100 ng/ml and 2-20-50 μg/ml). The cells were first plated into collagen-coated 24-wells plates with 2.5% FBS in the medium to be de-differentiated. After 72 hrs, the test compounds were added and NGF (Sigma Aldrich; 100 ng/ml) as positive control of differentiation. The number of differentiated cells, with neurite processes greater than two cell bodies in length, is counted after 3 days of treatment. The cell count is done in three randomly selected fields with 100 cells.

PC12 cells [4] = experiment: Synergistic activity assay (PC12 differentiation in combination with NGF); type: cell-based; settings: NGF alone 100 ng/ml
Protocol: To evaluate if the small molecules G79, G80, and G81 interfere with the maximal activity of NGF or lead to additive effects, PC12 cells were plated into collagen-coated 24-wells plates with 2.5% FBS and treated after 72 h with the small chemicals (each one at 100 ng/ml) in combination with NGF at the concentration of 100 ng/ml. In the same experiment PC12 cells were treated with the small molecules or NGF alone, as controls. The number of differentiated cells was evaluated after three days of treatment. The cell count was done in three randomly selected fields with 100 cells.

PC12 cells [5] = experiment: Signalling inhibition assays (PC12 differentiation with LY294002 or PD98059); type: cell-based
Protocol: To evaluate if the transduction pathway induced by G79, G80, and G81 involves AKT and ERK activation, PC12 cell were treated with the test compounds in the presence of LY294002, an inhibitor of PI3K (an upstream activator of AKT) and PD98059, an inhibitor of MAPK kinase (an upstream activator of ERK). For this purpose, PC12 cells were plated into collagen-coated 24-wells plates with 2.5% FBS and after 72 hrs the cells were treated with the small molecules in combination with LY294002 (Sigma Aldrich, 10 μM) or PD98059 (Sigma Aldrich, 50 μM). NGF (100 ng/ml) was used as control and added alone or in combination with the inhibitors.

PC12 cells [6] = experiment: Receptor activation assay (PC12 differentiation with anti-TrkA antibody); type: cell-based
Protocol: The hypothesis that G79, G80, and G81 can act through the binding to the extracellular portion of TrkA (binding site) and activate the tyrosine kinase receptor was tested by treating the PC12 cells with the small chemicals in combination with the antibody anti-TrkA or the K252a, a tyrosine kinase inhibitor. For this purpose PC12 cells were plated into collagen-coated 24-wells plates with 2.5% FBS and after 72 hrs were incubated with the small molecules alone or in combination with anti-TrkA antibody (AbCam, 1:2000) or K252a. NGF (100 ng/ml) was used as control and added alone or in combination with anti-TrkA antibody or K252a. The number of differentiated cells was evaluated after three days of treatment. The cell count was done in three randomly selected fields with 100 cells.

PC12 cells [7] = experiment: Secretagogue activity assay (PC12 differentiation with antibody anti-NGF); type: cell-based
Protocol: To assess if the tested compounds, G79, G80, and G81, act as secretagogues, inducing neurotrophic activity through the synthesis of NGF, PC12 cells were plated into collagen-coated 24-wells plates with only 2.5% FBS and after 72 hrs the cells were treated with the tested compounds (each one at 100 ng/ml) together with antibody anti-NGF (1 μg/ml, AbCam). After three days of treatment, the differentiation was evaluated. The cell count was done in three randomly selected fields with 100 cells.

SH-SY5Y cells = experiment: Parkinson's disease in vitro model (MPTP stress, MTT); type: cell-based, human; settings: MPTP 100 μM, 24 hrs; pre-treated 3 hours; BDNF 20 ng/ml
Protocol: The human neuroblastoma cell line SH-SY5Y was maintained in culture with 50% Ham's F12 medium and 50% EMEM medium, supplemented with 10% FBS, […] L-glutamine and 1% penicillin/streptomycin. The cell culture was maintained in a humidified atmosphere of 95% air and CO2 at 37° C.
The SH-SY5Y cells after differentiation to neuronal phenotype with retinoic acid, were pre-treated for 3 hours with the test compounds at different concentrations (20 ng/ml, 100 ng/ml, 2 μg/ml, 20 μg/ml and 50 μg/ml) or BDNF (20 ng/ml) as a positive control. Then 1-methyl-4-phenyl-1,2,3,6-tetrahydropyridine (MPTP) (100 μM) was added and incubated for 24 hrs. The number of surviving cells was determined the day after by 3-(4,5-dimethylthiazol-2-yl)-2,5-diphenyltetrazolium bromide (MTT) assay.

NSC-34 cells = experiment: In vitro model of ALS, serum deprivation of motoneuron-like cells (MTT); type: cell-based, mouse; settings: BDNF 20 ng/ml; serum deprivation 48 h
Protocol: Mouse motoneuron-like cells NCS-34 were cultured in DMEM (Gibco) supplemented with 10% heat inactivated FBS and 1% penicillin/streptomycin. The cell culture was maintained in a humidified atmosphere of 95% air and CO2 at 37° C.
The nutritional deprivation stress in motorneurons was conducted as described previously in Masahito T. et al., J. Neuropathol. Exp. Neurol. 65(8):816-825 (2006). To assess the effect of trophic stress condition on ALS, the presence of apoptosis was investigated using serum deprivation. NSC-34 cells were seeded in 24-well poly-lysinated plates at 30,000 cells/well and preincubated for 24 h in DMEM plus 10% FBS with various doses of G79, G80, and G81 (20 ng/ml, 100 ng/ml, 2 μg/ml, 20 μg/ml, 50 μg/ml), and G-CSF (2 μg/ml) or BDNF (20 ng/ml) which both were used as positive controls (Masahito T. et al., ibid; Elliot J. L., Neurobiology of Disease 6:310-320 (1999)). Then, the medium was removed and replaced with fresh DMEM without FBS. After 48 h, cell viability was assayed by MTT assay, as described previously.

HSP-27 = experiment: Luminex signalling assay in SH-SY5Y; type: cell-based, human; settings: G79 100 ng/ml and 20 μg/ml, BDNF 20 ng/ml; 30 min, 1 h, 2 h, 6 h
From the text: (§1) The human neuroblastoma cell line SH-SY5Y was used to perform Luminex signalling assays using the 10-Plex MAPK/SAPK Signaling Kit-Phosphoprotein (Millipore). This cell line expresses the TrkB receptor and the MAPK/SAPK signalling pathway is typically activated by the tyrosinkinase receptors. The phosphoprotein antibodies included into the kit are the following: ERK/MAP kinase (Thr185/Tyr187); STAT-1 (Tyr701); JNK (Thr183/Tyr185); MEK-1 (Ser212); ATF-2 (Thr69/71); p53 (Ser15); HSP27 (Ser78); c-Jun (Ser73); p38 (Thr180/Tyr182), p70 S6 kinase (Thr412); IkBα (Ser32) (purchased from Millipore).
(§2) The cells were propagated and then seeded into 24-well plates (30.000 cell/well). After 24 hours, the cells were treated with two different concentrations of NGF-receptor agonist G79: 100 ng/ml and 20 μg/ml. After adding G79 into the medium, the cells were collected in the lysis buffer of the kit at the following time points: 30 min, 1 h, 2 h, and 6 h. The assay was performed in this way to assess both time and dose effects comparing the treated samples with the untreated cells used as negative controls (unstimulated SH-SY5Y cells). BDNF was used as positive control at the concentration 20 ng/ml, which is the best working concentration known in literature. In the Luminex plate, each sample was added into a well in duplicate. After adding all the samples, the specific positive and negative controls of phosphorilation, included in the Luminex kit, were added. The assay buffer was also added in duplicate, as a background controls.
(§3) In the circles are the activated factors, while in the grey circles are the tested factors. Its effects of the SY-SY5Y cell line in the phosphorilation of several pathways were assessed using xMAP assay from Luminex. […] The levels of activation are expressed as Median Fluorescence Intensity (MFI).

ATF-2 = experiment: Luminex signalling assay in SH-SY5Y; type: cell-based, human; settings: G79 100 ng/ml and 20 μg/ml, BDNF 20 ng/ml; 30 min, 1 h, 2 h, 6 h
From the text: as §1, §2, §3

JNK = experiment: Luminex signalling assay in SH-SY5Y; type: cell-based, human; settings: G79 100 ng/ml and 20 μg/ml, BDNF 20 ng/ml; 30 min, 1 h, 2 h, 6 h
From the text: as §1, §2, §3

STAT-1 = experiment: Luminex signalling assay in SH-SY5Y; type: cell-based, human; settings: G79 100 ng/ml and 20 μg/ml, BDNF 20 ng/ml; 30 min, 1 h, 2 h, 6 h
From the text: as §1, §2, §3

NC(=O)N1c2ccccc2C=Cc2ccccc21 [carbamazepine]
Papp at 18 h [1]: 10.3 ×10⁻⁶ cm/s

CC(C)NCC(O)COc1cccc2ccccc12 (stereo not drawn) [propanolol]
Papp at 18 h [1]: 11.5 ×10⁻⁶ cm/s

NGF: homodimeric protein from the neurotrophin family; positive control of differentiation and survival
protection of retinal ganglion cells (number of RGC vs glaucoma-placebo) [2]: significant protection of the ganglion cells
number of differentiated cells in a field of 100 cells (PC12 cells [3]): 16.1±1.9 cells
number of differentiated cells (PC12 cells [4]): 20±7.1
number of differentiated cells (PC12 cells [5]; plus LY294002 (10 μM), inhibitor of PI3K): 6.8±2.7
number of differentiated cells (PC12 cells [5]; plus PD98059 (50 μM), inhibitor of MAPK kinase): 2.1±1.9
number of differentiated cells (PC12 cells [5]; treatment alone): 20.7±7.1
number of differentiated cells (PC12 cells [6]; in combination with anti-TrkA antibody (1:2000)): 12.8±6.3
number of differentiated cells (PC12 cells [6]; treatment alone): 20.7±7.1
number of differentiated cells for each field (PC12 cells [7]; 100 ng/ml together with antibody anti-NGF (1 μg/ml)): 12.8±6.3
number of differentiated cells for each field (PC12 cells [7]; 100 ng/ml, treatment alone): 20.7±7.1

B1: BDNF: brain-derived neurotrophic factor, neurotrophin used as positive control (protein, UniProt P23560 19-247, looked up)
Neurotrophic factor BDNF …: APMKEANIRGQGGLAYPGVRTHGTLESVNGPKAGSRGLTSLADTFEHVIEELLDEDQKVRPNEENNKDADLYTSRVMLSSQVPLEPPLLFLLEEYKNYLDAANMSMRVRRHSDPARRGELSVCDSISEWVTAADKKTAVDMSGGTVTVLEKVPVSKGQLKQYFYETKCNPMGYTKEGCRGIDKRHWNSQCRTTQSYVRALTMDSKKRIGWRFIRIDTSCVCTLTIKRGR
protection of neuronal cells against MPTP (surviving cells, MTT) (SH-SY5Y cells): significant protection of neuronal cells
cell viability, percentage relative to the control without stress (NSC-34 cells): 80.62±5.2%
HSP-27 phospho-activation (MFI) compared to unstimulated control (HSP-27): does not activate HSP-27
ATF-2 phospho-activation (MFI) compared to unstimulated control (ATF-2): significant ATF-2 activation at 2 h after treatment
JNK phospho-activation (MFI) compared to unstimulated control (JNK): significant JNK activation at 2 h after treatment
STAT-1 phospho-activation (MFI) compared to unstimulated control (STAT-1): did not activate STAT-1
